# In patent US20240058240A1, “COMPOUNDS AS SELF-TANNING SUBSTANCES AND TANNING COMPOSITIONS THEREOF” (CHEMCOM S.A., priority 2020, published 2024):
# Assays:
# Type in all cases: cell-based
# OR7C1 = biological target: T1, OR7C1 (Homo sapiens, UniProt O76099); assay: Luciferase-based CRE gene reporter assay, dose-response on OR7C1; conditions: negative logarithm of the EC50 in Moles, semi-logarithmic dilutions from 1 mM to 316 nM on OR7C1; for EC50: read-out: -LogEC50 (average n > 3) (converted)
# T1 construct: transfected with a plasmid containing the CRE-luciferase and a plasmid containing the olfactory receptor; expressed in transfected cells; host or cells: HEK293T-RTP1A1/RTP2 (HEK293T stably expressing the chaperones RTP1A1 and RTP2)
# T1 sequence (O76099 1-320): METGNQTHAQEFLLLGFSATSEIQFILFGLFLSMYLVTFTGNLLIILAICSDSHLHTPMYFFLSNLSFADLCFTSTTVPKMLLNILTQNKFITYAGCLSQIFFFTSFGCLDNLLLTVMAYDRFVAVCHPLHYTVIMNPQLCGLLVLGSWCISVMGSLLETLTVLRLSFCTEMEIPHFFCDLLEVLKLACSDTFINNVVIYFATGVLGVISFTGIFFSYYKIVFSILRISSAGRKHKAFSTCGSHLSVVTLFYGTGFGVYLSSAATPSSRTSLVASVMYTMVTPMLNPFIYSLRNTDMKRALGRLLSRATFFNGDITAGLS
# Protocol: HEK293T-RTP1A1/RTP2 cells were maintained in minimal essential medium (EMEM, Lonza) containing 10% fetal bovine serum (M10). These cells were generated by transfecting HEK293T (Thermofisher Scientific, cat ref: R70007) with an expression vector containing the sequences of the chaperone proteins RTP1A1 and RTP2 and a resistance gene to puromycin, using Lipofectamine 2000. The recombinant cell population, used in these experiments, was selected by adding 10 μg/ml of puromycin into the culture medium and subsequently subcloned (WO 2014/191047 A1).
# Potential OR7C1 agonists were diluted at a concentration of 1 mole/liter (M) into an organic solvent such as Dimethyl Sulfoxide (DMSO) or Ethanol to generate stock solutions. […]
# For concentration-response analysis, serial dilutions of the tested molecules were prepared from stock solutions in EMEM plated into 96-well plates.
# For the dose-response analysis, a Luciferase-based gene reporter assay (Promega, Leiden, the Netherlands) was used. Briefly, cells were platted on poly-D-lysine-coated 96-well plates and transfected with a plasmid containing the CRE-luciferase and a plasmid containing the olfactory receptor. Sixteen hours after transfection, the culture medium was replaced by serum-free EMEM containing the tested compounds at a determined concentration. After four hours of incubation at 37° C., cells were lysed and processed for luminescence measurement. Luminescence emission was recorded. Results were expressed as luciferase activity ([…] (RLU)) or as percentage of the response induced by 10 μM of the adenylate cyclase activator Forskolin. An empty plasmid is used as negative control.
# Dose-response analyses using the luciferase-based reporter assay were performed using semi-logarithmic serial dilutions of the compounds, from 1 mM to 316 nM, on OR7C1. 46 compounds were tested in concentration-response analyses. In each experiment, an empty vector (pEFIBRHO) was used as negative control. Values are given as the negative logarithm of the EC50 in Moles.
# [1] = tested on: Normal Human Epidermal Melanocytes moderately pigmented (NHEMs-MP); assay: MTS cytotoxicity test on NHEMs-MP; conditions: 4 days of treatment, 5 concentrations, threshold 80% viability
# Protocol: (§1) This primary culture was cultivated in medium M254 supplemented (LIFE TECHNOLOGIES; ref:M-254-500) with HMGS (human melanocyte growth supplement; LIFE TECHNOLOGIES; ref: S-002-5) and gentamycin (LIFE TECHNOLOGIES; ref:15710-049) and maintained in a humidified incubator at 37° C. with a 5% CO2 atmosphere. For experiments (see below), cells were seeded at a density of 9×10^4 cells/well (100 μL/well) and cultured at 37° C. under a 5% CO2.
# NHEMs moderately pigmented (NHEMs-MP) were seeded in 24-wells plates at a density of 9×10^4 cells/well, 72 h before the treatment with the different concentrations of 2 different compounds according to embodiments of the invention. After 2 days of treatment with these compounds, compounds were re-applied for 2 additional days according to the experimental scheme as shown in FIG. 1. Sodium dodecyl sulfate (SDS) at 0.05% was used as cytotoxicity positive control in order to validate the experiment. […]
# An MTS assay (3-(4,5-dimethythiazol-2-yl)-5-(3-carboxymethoxyphenyl)-2-(4-sulfophenyl)-2H-tetrazolium) was performed to measure the maximal concentrations the compounds which can be used in the culture medium of NHEMs-MP without affecting cell viability. […] Cell viability was analyzed, and toxicity/viability was expressed in percentage relative to the ethanol treated condition which was fixed at 100%. […]
# [2] = tested on: Normal Human Epidermal Melanocytes moderately pigmented (NHEMs-MP); assay: Melanin content (pigmentation) of NHEMs-MP in culture
# Protocol: as §1
# The NHEMs-MP were treated for 4 days, with a medium refresh after 2 days of treatment—Amberketal, Ambermax and with the reference molecule (L-DOPA)—when the culture media are collected and stored at −80° C. as shown in FIG. 2. At the end of the treatments, the culture media were collected a second time, pooled with the media collected at day 2 and centrifuged for 30 minutes (14000 rpm). The pellet obtained after centrifugation and NHEMs-MP treated cells were lysed in 150 μl of a NaOH 1M solution. 5 μl of each cell lysate were used for protein quantification using BCA protein assay. The remaining 145 μl of the lysates were heated at 80° C. during 1 h. The optical density was measured at 490 nm and the melanin content was determined by comparison with a standard curve of synthetic melanin and reported to the quantity of protein present in each cell well tested.
# The effects of these 2 compounds, namely Ambermax and Amberketal, on the melanin production were evaluated as described above. Based on MTS results, moderately pigmented (MP) NHEMs were treated with these 2 compounds at one concentration (100 μM for Amberketal and 3.16 μM for Ambermax) for 4 days. In parallel, cell cultures were also treated with Ethanol 0.1%, a concentration corresponding to the test compounds solvent, and with a known modulator of pigmentation (L-DOPA 50 μM). […] At the end of the treatments (D4), cells were lysed, the melanin content was quantified by spectrophotometry and normalized to the amount of proteins. Extracellular melanin was also evaluated by the same methodology after centrifugation of the culture media.
Compound,EC50 (OR7C1) [µM],further results
"CC(=O)C1(C)CCC2=C(C1C)C(C)(C)CCC2 (stereo not shown) [Compound 4, Georgywood]",25.1,"cell toxicity (MTS, viability relative to ethanol treated condition) [1]: no significant cell toxicity"
"N[C@@H](Cc1ccc(O)c(O)c1)C(=O)O [L-DOPA, 3,4-dihydroxyphenylalanine, reference compound]",–,"melanin content in NHEMs ([2]; 50 μM, 4 days of treatment): enhanced slightly the melanin content"
"CCC(O)COC1CCCCC1C(C)(C)C (stereo not shown) [Compound 2, Ambercore]",12.6,–
"CCCC(=O)COC1C2(C)CCC(C2)C1(C)C (stereo not shown) [Compound 6, 1-((1,3,3-trimethylbicyclo[2.2.1]heptan-2-yl)oxy)pentan-2-one]",50.1,–
"CCCC(O)COC1C2(C)CCC(C2)C1(C)C (stereo not shown) [Compound 5, 1-((1,3,3-trimethylbicyclo[2.2.1]heptan-2-yl)oxy)pentan-2-ol]",50.1,–
"5-(1-Methoxybutan-2-yl)-2,2,7,7-tetramethyltricyclo[6.2.1.01,6]undec-5-ene [Compound 29]",–,-LogEC50 (average n > 3) (OR7C1): 5.2
"2-(2,2,7,7-Tetramethyl-5-tricyclo[6.2.1.01,6]undec-4-enyl)butan-1-ol [Compound 28]",–,-LogEC50 (average n > 3) (OR7C1): 6.6
"CCC(O)COC1C2(C)CCC(C2)C1(C)C (stereo not shown) [Compound 7, 1-((1,3,3-trimethylbicyclo[2.2.1]heptan-2-yl)oxy)butan-2-ol]",50.1,–

# The next lines start with results.
EC50 (OR7C1) [µM],Compound,further results
2.51,"CC12CCC3C(CCC4C(C)(C)CCCC43C)(CO1)O2 (stereo not shown) [Compound 17, Amberketal]","increase of melanin present in the media (extracellular) ([2]; 100 μM, 4 days, NHEMs-MP, in comparison with DOPA (50 μM), p<0.01, n=10): +99%; increase of intracellular melanin content ([2]; 100 μM, 4 days, NHEMs-MP, in comparison with DOPA (50 μM), p<0.01, n=12): +40%"
0.398,"CC(C)[C@]12C[C@@H]3OC(C)(C)O[C@]3(C)[C@H](C1)C(C)(C)C2 [Compound 13, 2,4,4,10,10-Pentamethyl-8-propan-2-yl-3,5-dioxatricyclo[6.2.1.02,6]undecane]",–
2.51,"CCC(COC)C1=C2C(C)(C)[C@H]3CC[C@@]2(C3)C(C)(C)CC1 (stereo partly shown) [Compound 30, 5-(1-Methoxybutan-2-yl)isolongifol-5-ene]",–
2.51,"CC1OC[C@H](C)C2(CC3CCC2(C)C3(C)C)O1 (stereo partly drawn) [Compound 10, 1′,2,5(S),7′,7′-Pentamethyl-spiro[1,3-dioxane-4,2′-bicyclo[2.2.1]heptane]]",–
0.501,"CC(C=O)C1=C2C(C)(C)[C@H]3CC[C@@]2(C3)C(C)(C)CC1 (stereo partly shown) [Compound 21, 5-(1-Oxopropan-2-yl)isolongifol-5-ene]",–
12.6,"C[C@@]12C=CCC1C1CC=C3C[C@@H](O)CC[C@]3(C)C1CC2 (stereo partly shown) [Compound 46, Androstadienol]",–
12.6,"CC1CCC2C(C2(C)C)C12COC(C)(C)OC2 (stereo not shown) [Compound 12, Spirambrene]",–
5.01,"CC1OC2CC(C)(C)[C@@]34CC[C@@H](C3)C(C)(C)C4C2O1 (stereo in doubt) [Compound 23, 2,2,6,10,10-Pentamethyl-5,7-dioxatetracyclo[9.2.1.01,9.04,8]tetradecane]",–
10,"CC1(C)C2C3OCOC3CC(C)(C)[C@]23CC[C@H]1C3 (stereo in doubt) [Compound 24, 2,2,10,10-Tetramethyl-5,7-dioxatetracyclo[9.2.1.01,9.04,8]tetradecane]",–
31.6,"CC1(C)/C(=C\CO)C2CCC1C2 (racemic) [Compound 8, DL-Patchenol]",–
12.6,"CCC1OC2CC(C)(C)[C@@]34CC[C@@H](C3)C(C)(C)C4C2O1 (stereo in doubt) [Compound 20, 6-Ethyl-2,2,10,10-tetramethyl-5,7-dioxatetracyclo[9.2.1.01,9.04,8]tetradecane]",–
